Test results taken from patent US11793790B2, “Compositions against Candida infections” (Katholieke Universiteit Leuven, priority 2017, dated 2023).

Key:
[1] = test system: C. albicans biofilms; assay: Biofilm checkerboard assay (CTB metabolic activity, BEC-2, FICI); conditions: for BEC-2 MCZ: 24 h
[2] = test system: C. albicans biofilm cells; assay: Kinetic PI (propidium iodide) fluorescence assay on biofilms; assay type: cell-based, Candida albicans
[3] = cited from earlier work
[4] = test system: planktonic C. glabrata cultures (strain BG2); assay: Checkerboard assay with determination of the MIC; assay type: cell-based, Candida glabrata
Experimental: A C. glabrata BG2 overnight culture, grown in YPD, was diluted to an optical density of 0.1 (approximately 10^6 cells/mL) in RPMI medium, preheated at 37° C. 90 μL of the cell suspension was added to the wells of a 96 well plate, containing 10 μL of a combination of MCZ and DB, two fold diluted across rows and columns respectively (DMSO background 2%). After both 24 h and 48 h of incubation at 37° C., absorbance was measured at 490 nm by a multimode reader (Synergy Mx multi-mode microplate reader, BioTek, USA).
Domiphen bromide (DB) is a potentiator of miconazole against C. glabrata biofilms. […] MIC values were determined using Graphpad Prism 6 (table 8).

[5] = test system: C. glabrata biofilms (strain BG2); assay: Biofilm checkerboard assay with CFU determination (Example 9); assay type: cell-based, Candida glabrata; conditions: on its own or in combination with DB
Experimental: After 1 h of adhesion at 37° C., the medium was aspirated and biofilms were washed with 100 μL PBS to remove non-adherent cells, followed by the addition of 100 μL RPMI 1640 medium. Biofilms were allowed to grow for 24 h at 37° C. To determine possible potentiation of MCZ by DB, a checkerboard assay was used. […] After 38 h of incubation at 37° C., CFU determination was performed on treated biofilms. […] Serial dilutions (10^−2, 10^−3 and 10^−4) were plated on YPD agar plates, followed by an incubation period of 24 h at 37° C. and subsequent colony counting.

[6] = single treatment at 50 μM, 5-10 h after treatment

CC[N+](CC)(CC)CC.[Br-] [tetraethylammonium bromide]
FICI with Miconazole ([1]; quaternary ammonium compound combined with Miconazole): > 0.5

CCCCCCCCCCCC[N+](C)(C)CCOc1ccccc1 [domiphen bromide, N,N-dimetyl-N-(2-phenoxyetyl)-, bromide]
PI fluorescence [2, 6]: slight increase
solubility in water [3]: highly soluble in water

benzalkonium chloride
PI fluorescence [2, 6]: slight increase
potentiation of MCZ against planktonic C. glabrata cultures [4]: could not potentiate MCZ

Clc1ccc(COC(Cn2ccnc2)c2ccc(Cl)cc2Cl)c(Cl)c1 (stereo not drawn) [miconazole nitrate]
solubility in water [3]: insoluble in water

Clc1ccc(COC(Cn2ccnc2)c2ccc(Cl)cc2Cl)c(Cl)c1 (racemic) [Miconazole, (RS)-1-[2-(2,4-dichlorofenyl)-2-[(2,4-dichlorofenyl)methoxy]ethyl] imidazole]
BEC-2 MCZ ([1]; 0 μM DB (MCZ alone)): 230 µM
BEC-2 MCZ ([1]; in combination with 1.56 μM DB): 150 µM
BEC-2 MCZ ([1]; in combination with 3.125 μM DB): 100 µM
BEC-2 MCZ ([1]; in combination with 6.25 μM DB): 55 µM
BEC-2 MCZ ([1]; in combination with 12.5 μM DB): 30 µM
BEC-2 MCZ ([1]; in combination with 25 μM DB): 1 µM
PI fluorescence ([2]; single treatment 150 μM, after 16 h of treatment): slight increase
solubility in water [3]: insoluble in water

CC[C@@H]([C@H](C)O)n1ncn(-c2ccc(N3CCN(c4ccc(OC[C@@H]5CO[C@@](Cn6cncn6)(c6ccc(F)cc6F)C5)cc4)CC3)cc2)c1=O [Posaconazole]
antibiofilm activity against C. glabrata biofilms [5]: no significant antibiofilm activity
